In US20070010485A1 (priority 2005, published 2007):
Counter-ions that a name gives are not always drawn.

Assays:
[1] = tested on: P-gp expressing CD33(+) leukemia cells; conditions: cited from earlier work
[2] = use of CAPTISOL

O=C(C(c1ccccc1)c1ccccc1)N1CCN(CC(O)COc2cccc3ncccc23)CC1.O=C(O)/C=C/C(=O)O (centres unmarked) [MS-209]
reversal of resistance to Mylotarg [1]: reverse the resistance to Mylotarg

OC(COc1cccc2ncccc12)CN1CCN([C@@H]2c3ccccc3[C@@H]3[C@H](c4ccccc42)C3(F)F)CC1 (some centres unmarked) [zosuquidar trihydrochloride]
increase in water solubility with CAPTISOL [2]: > 5 fold
